Read-outs that look alike come from different tables or passages of the source.
Experiments:
[1] = tested on: wheat leaf rust, Puccinia recondita; assay: whole plant or invertebrate; type: in vivo; settings: foliar; for pest or weed control at 280.212 g/ha: read-out: % Control (without rain), foliar, 0.25 lb.; for pest or weed control at 1120.85 g/ha: read-out: % Control (without rain), foliar, 1 lb.
[2] = tested on: wheat leaf rust, Puccinia recondita; assay: whole plant or invertebrate; type: in vivo; settings: foliar; for pest or weed control at 280.212 g/ha: read-out: % Control (with 1" of rain), foliar, 0.25 lb., 1" of rain; for pest or weed control at 1120.85 g/ha: read-out: % Control (with 1" of rain), foliar, 1 lb., 1" of rain

| SMILES | pest or weed control at 280.212 g/ha [1] [%] | pest or weed control at 1120.85 g/ha [1] [%] | pest or weed control at 280.212 g/ha [2] [%] | pest or weed control at 1120.85 g/ha [2] [%] |
| --- | --- | --- | --- | --- |
| c1nc(-n2cnnc2)n[nH]1 [Example 66, 4-(3-(1,2,4-triazy)-1,2,4-triazole] | 100 | 100 | 99 |  |
| c1cnc(-n2cnnc2)nc1 [Example 67, 4-(2-pyrimidyl)-1,2,4-triazole] | 94 | 87 |  | 97 |
| c1csc(-n2cnnc2)n1 [Example 68, 4-(2-thiazyl)-1,2,4-triazole] | 66 | 73 | 67 | 96 |
| c1ccc2sc(-n3cnnc3)nc2c1 [Example 69, 4-(2-benzothiazyl)-1,2,4-triazole] | 100 | 100 | 98 | 98 |
| Clc1cccc2sc(-n3cnnc3)nc12 [Example 70] | 100 | 100 | 100 |  |
| c1ccc2[nH]c(-n3cnnc3)nc2c1 [Example 71, 4-(2-benzimidazolyl)-1,2,4-triazole] | 10 | 20 | 0 | 0 |
| Cn1cnnc1S [Example 73, 3-mercapto-4-methyl-1,2,4-triazole] | 34 | 50 | 0 | 10 |
| CCn1cnnc1S [Example 74, 3-mercapto-4-ethyl-1,2,4-triazole] | 40 | 60 | 0 | 0 |
| CC(C)(C)n1cnnc1S [Example 77, 3-mercapto-4-t-butyl-1,2,4-triazole] | 68 | 100 | 57 | 80 |
| CCCCCCCCn1cnnc1S [Example 80, 3-mercapto-4-n-octyl-1,2,4-trizole] | 100 | 100 | 51 | 65 |
| CC(C)(C)CC(C)(C)n1cnnc1S [Example 81, 3-mercapto-4-t-octyl-1,2,4-triazole] | 100 | 100 | 53 | 86 |
| CCCCCCCCCCn1cnnc1S [Example 82, 3-mercapto-4-n-decyl-1,2,4-triazole] | 61 | 78 | 46 | 72 |
| Sc1nncn1C1CCCCC1 [Example 83, 3-mercapto-4-cyclohexyl-1,2,4-triazole] | 44 | 34 | 100 | 98 |
| Sc1nncn1-c1ccccc1 [Example 85, 3-mercapto-4-phenyl-1,2,4-triazole] | 80 | 85 | 72 | 90 |
| Cn1c(O)nnc1S [Example 86, 3-mercapto-4-methyl-5-hydroxy-1,2,4-triazole] | 96 | 99 | 63 | 63 |
| CCCCn1c(O)nnc1S [Example 87, 3-mercapto-4-n-butyl-5-hydroxy-1,2,4-triazole] | 15 | 49 | 0 | 0 |
| Oc1nnc(S)n1-c1ccccc1 [Example 88, 3-mercapto-4-phenyl-5-hydroxy-1,2,4-triazole] | 73 | 80 | 98 | 100 |
| CCCCn1c(C)nnc1S [Example 89, 3-mercapto-4-n-butyl-5-methyl-1,2,4-triazole] | 26 | 51 | 57 | 80 |
| Cn1c(S)nnc1-c1ccco1 [Example 90, 3-mercapto-4-methyl-5-(2-furyl)-1,2,4-triazole] | 0 | 28 | 80 | 87 |

| SMILES | pest or weed control at 280.212 g/ha [1] [%] | pest or weed control at 1120.85 g/ha [1] [%] | pest or weed control at 280.212 g/ha [2] [%] | pest or weed control at 1120.85 g/ha [2] [%] |
| --- | --- | --- | --- | --- |
| CCCCn1c(S)nnc1-c1ccco1 [Example 91, 3-mercapto-4-n-butyl-5-(2-furyl)-1,2,4-triazole] | 41 | 72 | 100 | 100 |
| Sc1nnc(-c2ccco2)n1-c1ccccc1 [Example 92, 3-mercapto-4-phenyl-5-(2-furyl)-1,2,4-triazole] | 100 | 81 | 100 | 87 |
| Cn1c(S)nnc1C(=O)O [Example 93, 3-mercapto-4-methyl-5-carboxy-1,2,4-triazole] | 65 | 94 | 0 | 0 |
| COC(=O)c1nnc(S)n1C [Example 96, 3-mercapto-4-methyl-5-methoxycarbonyl-1,2,4-triazole] | 90 | 98 | 0 | 5 |
| CCCCn1cnnc1SC [Example 102, 3-methylmercapto-4-n-butyl-1,2,4-triazole] | 100 | 100 | 51 | 51 |
| CCCCSc1nncn1CCCC [Example 103, 3-n-butylmercapto-4-n-butyl-1,2,4-triazole] | 50 | 90 | 50 | 80 |
| CCCCCCCCCCSc1nncn1CCCC [Example 104, 3-n-decylmercapto-4-butyl-1,2,4-triazole] | 80 | 98 | 45 | 98 |
| C=CCSc1nncn1CCCC [Example 105, 3-allylmercapto-4-n-butyl-1,2,4-triazole] | 50 | 95 | 50 | 90 |
| C=CCOCCSc1nncn1CCCC [Example 108, 3-(2-allyloxyethylmercapto)-4-n-butyl-1,2,4-triazole] | 35 | 85 | 25 | 40 |
| CCCCn1cnnc1SCCOc1ccccc1 [Example 109, 3-(2-phenoxyethylmercapto)-4-n-butyl-1,2,4-triazole] | 100 | 100 | 96 | 100 |
| CCCCn1cnnc1SC(C)=O [Example 115, 3-acetylmercapto-4-n-butyl-1,2,4-triazole] | 99 | 100 | 90 | 95 |
| CCCCn1cnnc1SC(=O)COC [Example 116, 3-methoxyacetylmercapto-4-n-butyl-1,2,4-triazole] | 100 | 100 | 95 | 99 |
| CCCCn1cnnc1SC(=O)CCC [Example 117, 3-butyrylmercapto-4-n-butyl-1,2,4-triazole] | 100 | 100 | 95 | 99 |
| CCCCn1cnnc1SC(=O)c1ccccc1Br [Example 118, 3-(2-bromobenzoylmercapto)-4-n-butyl-1,2,4-triazole] | 100 | 100 | 100 | 100 |
| CCCCn1cnnc1SC(=O)c1ccc(Br)cc1 [Example 119, 3-(4-bromobenzoylmercapto)-4-n-butyl-1,2,4-triazole] | 100 | 100 | 100 | 100 |
| CCCCn1cnnc1SC(=O)c1cc(Cl)cc(Cl)c1 [Example 120, 3-(3,5-dichlorobenzoylmercapto)-4-n-butyl-1,2,4-triazole] | 100 | 100 | 98 | 98 |
| CCCCn1cnnc1SC(=O)c1cccc([N+](=O)[O-])c1 [Example 122, 3-(3-nitrobenzoylmercapto)-4-n-butyl-1,2,4-triazole] | 100 | 100 | 100 | 100 |
| CCCCn1cnnc1SC(=O)c1cc(OC)c(OC)c(OC)c1 [Example 123, 3-(3,4,5-trimethoxybenzoylmercapto)-4-n-butyl-1,2,4-triazole] | 98 | 100 | 90 | 98 |

Reference: patent US4120864A, “1,2,4-4H-triazole derivatives” (Rohm and Haas Company, priority 1972, dated 1978)
